Laboratory results published in the NIST ThermoML archive (doi:10.1016/j.fluid.2010.01.019).

Details: Liquid, Vibrating tube method

CCCCC(=O)OCC(COCC(COC(=O)CCCC)(COC(=O)CCCC)COC(=O)CCCC)(COC(=O)CCCC)COC(=O)CCCC
mass density [kg/m3]
Details	100 kPa	1000 kPa	5000 kPa	10000 kPa	20000 kPa	30000 kPa	40000 kPa	50000 kPa	60000 kPa	70000 kPa
283.15 K	1045	1045.5	1047.7	1050.4	1055.8	1060.9	1065.8	1070.5	1075	1079.3
298.15 K	1033.7	1034.2	1036.7	1039.7	1045.4	1050.7	1055.9	1060.8	1065.5	1070
323.15 K	1014.6	1015.2	1018	1021.3	1027.6	1033.5	1039	1044.4	1049.5	1054.3
333.15 K	1007	1007.7	1010.6	1014	1020.6	1026.7	1032.4	1037.9	1043.2	1048.2
348.15 K	995.5	996.3	999.4	1003.1	1010	1016.4	1022.5	1028.3	1033.8	1039.1
373.15 K	975.7	977.3	980.8	984.9	992.5	999.6	1006.2	1012.5	1018.4	1024
398.15 K	957	957.8	961.4	965.9	974.4	982.1	989.3	996.1	1002.4	1008.4

CCCCCCC(=O)OCC(COCC(COC(=O)CCCCCC)(COC(=O)CCCCCC)COC(=O)CCCCCC)(COC(=O)CCCCCC)COC(=O)CCCCCC [dipentaerythritol hexaheptanoate]
mass density [kg/m3]
Details	100 kPa	1000 kPa	5000 kPa	10000 kPa	20000 kPa	30000 kPa	40000 kPa	50000 kPa	60000 kPa	70000 kPa
283.15 K	1000.3	1000.9	1003.2	1005.9	1011.2	1016.1	1020.8	1025.4	1029.9	1034.2
298.15 K	989.7	990.3	992.8	995.7	1001.3	1006.4	1011.3	1016.1	1020.7	1025.2
323.15 K	971.7	972.2	974.9	978.2	984.4	990.1	995.5	1000.6	1005.6	1010.3
333.15 K	964.4	965.1	967.9	971.3	977.8	983.7	989.3	994.6	999.7	1004.6
348.15 K	953.7	954.4	957.4	961	967.8	974.1	980	985.6	990.9	996
373.15 K	935	936.6	939.9	943.9	951.4	958.3	964.7	970.8	976.5	981.9
398.15 K	917.4	918.2	921.7	926.1	934.4	941.9	948.9	955.5	961.6	967.3
